# Results reported in patent US20120149691A1, “Pyrrolo [1,2-b] Pyridazine Derivatives as Janus Kinase Inhibitors” (BioCryst Pharmaceuticals, Inc., priority 2009, published 2012).
row,Structure (SMILES),melting point
1,"CC1CCCCC1Nc1c(C(=O)O)cnn2cccc12 (stereo not shown) [Compound 18e, 4-(2-methylcyclohexylamino)pyrrolo[1,2-b]pyridazine-3-carboxylic acid]",195.1 °C
2,"C[C@H]1CCCC[C@H]1Nc1c(C(N)=O)cnn2cccc12 [Compound 18g, 4-((1R,2S)-2-methylcyclohexylamino)pyrrolo[1,2-b]pyridazine-3-carboxamide]",158.6 °C
3,"C[C@@H]1CCCC[C@@H]1Nc1c(C(N)=O)cnn2cccc12 [Compound 18i, 4-((1S,2R)-2-methylcyclohexylamino)pyrrolo[1,2-b]pyridazine-3-carboxamide]",154.7 °C
4,"Cc1nc(C(CC(C)C)Nc2c(C#N)cnn3cccc23)sc1C (stereo not shown) [Compound 49b, 4-(1-(4,5-Dimethylthiazol-2-yl)-3-methylbutylamino)pyrrolo[1,2-b]pyridazine-3-carbonitrile]",137.9 °C
5,"CC(C)(CNc1c(C#N)cnn2cccc12)N1CCOCC1 [Compound 49e, 4-(2-methyl-2-morpholinopropylamino)pyrrolo[1,2-b]pyridazine-3-carbonitrile]",178.8 °C
6,"CN(C)C(CNc1c(C#N)cnn2cccc12)c1ccco1 (stereo not shown) [Compound 49h, 4-(2-(dimethylamino)-2-(furan-2-yl)ethylamino)pyrrolo[1,2-b]pyridazine-3-carbonitrile]",106.9 °C
7,"N#Cc1cnn2cccc2c1NC1(c2ccc(Cl)cc2Cl)CC1 [Compound 49k, 4-(1-(2,4-dichlorophenyl)cyclopropylamino)pyrrolo[1,2-b]pyridazine-3-carbonitrile]",207.7 °C
8,"COc1ccccc1C(CNc1c(C#N)cnn2cccc12)N1CCOCC1 (stereo not shown) [Compound 50b, 4-(2-(2-methoxyphenyl)-2-morpholinoethylamino)pyrrolo[1,2-b]pyridazine-3-carbonitrile]",156.9 °C

# More lines, now with the values ahead:
row,melting point,Structure (SMILES)
1,192.2 °C,"NC(=O)c1cnn2cccc2c1NC1CCC(O)CC1 (stereo not shown) [Compound 51i, 4-(4-hydroxycyclohexylamino)pyrrolo[1,2-b]pyridazine-3-carboxamide]"
2,101.8 °C,"N#Cc1cnn2cccc2c1NCC1CCCO1 (stereo not shown) [Compound 51k, 4-((tetrahydrofuran-2-yl)methylamino)pyrrolo[1,2-b]pyridazine-3-carbonitrile]"
3,120 °C,"NC(=O)c1cnn2cccc2c1NCC1CCCO1 (stereo not shown) [Compound 51m, 4-((tetrahydrofuran-2-yl)methylamino)pyrrolo[1,2-b]pyridazine-3-carboxamide]"
4,102.9 °C,"N#Cc1cnn2cccc2c1NC1CCCC1 [Compound 52b, 4-(cyclopentylamino)pyrrolo[1,2-b]pyridazine-3-carbonitrile]"
5,163.5 °C,"N#Cc1cnn2cccc2c1Nc1ccccc1 [Compound 52e, 4-(phenylamino)pyrrolo[1,2-b]pyridazine-3-carbonitrile]"
6,247.2 °C,"NC(=O)c1cnn2cccc2c1Nc1ccccc1 [Compound 52f, 4-(phenylamino)pyrrolo[1,2-b]pyridazine-3-carboxamide]"
7,108 °C,"N#Cc1cnn2cccc2c1NC1CCCCCC1 [Compound 52h, 4-(cycloheptylamino)pyrrolo[1,2-b]pyridazine-3-carbonitrile]"
8,279.2 °C,"NC(=O)c1cnn2cccc2c1NC1CCCCCC1 [Compound 52i, 4-(cycloheptylamino)pyrrolo[1,2-b]pyridazine-3-carboxamide]"
